What was measured:
SH-SY5Y nerve cells = assay: NMDA induced nerve cell injury model of SH-SY5Y cells, MTS viability; assay type: cell-based; conditions: 1 mM NMDA 30 minutes, then 24 h culture; telaprevir 1, 5, 10 μM; FIG. 5C
Method: SH-SY5Y nerve cells were purchased from the Xiangya Cell Bank of Central South University.
Cell culture method: Following a conventional cell culture method, the above SH-SY5Y nerve cells were cultured in an RPMI 1640 medium (containing 20% of fetal bovine serum). When the cells fused and grew to 80-90%, the cells were digested with a trypsin. After the cells shrank and became round and the intercellular space was obvious, the digestion was immediately terminated with a medium, the cells were dispersed and blown evenly into a single suspension state, passaged in bottles, and cultured in a 37° C. cell incubator containing 5% of CO2.
The SH-SY5Y cells at the fusion rate of 80-90% or more can be seeded on plates. […]
Cell viability was detected by MTS.
The measurement followed the operating instructions of a commercially available MTS kit (Promega (Beijing) Biotech Co., Ltd.). […] The absorbance of the cells at 490 nm was measured by enzyme-linked immunosorbent assay (the absorbance was controlled at 0.7-1.2), where the absorbance value reflected relative cell viability. Calculation: cell viability (%)=absorbance of the drug group/absorbance of the control group×100%. When the absorbance value of each group was calculated, the absorbance value of the background blank control group was first subtracted.

[1] = system: Alzheimer's disease mouse models; assay: Alzheimer's disease mouse model (Aβ1-42 into hippocampus), Morris water maze experiment; assay type: in vivo, ICR mice; conditions: telaprevir 40 mg/kg intramuscular daily for 17 days, #P<0.05 vs AD+vehicle
Method: (§1) Experimental animals: 7-week-old healthy male ICR mice weighing 25-30 g. The experimental animals were raised for one week in an environment with a temperature of 25° C., a relative humidity of 60%, free drinking water, and timed and quantified feeding, and then administered according to the requirements of each experimental group.
(§2) Building of an Alzheimer's disease mouse model and drug treatment: Aβ1-42 was purchased from MCE Reagent Company, dissolved in DMSO, diluted with physiological saline to 2 μg/μL, and incubated in an incubator at 37° C. for 7 days to convert the Aβ1-42 into an aggregated state. […]
(§3) A learning and memory ability and cognitive function of mice were detected by a Morris water maze experiment and a new/old object recognition experiment.
According to the requirements of the water maze experiment, a Morris water maze was divided into four quadrants, a platform having a diameter of 12 cm and a height of 35 cm was placed in one of the quadrants, water was added to submerge the platform 1-2 cm, and the pool water was dyed black with carbon ink. After the positioning navigation experiment lasted for 5 days, the platform was removed for a spatial probe experiment, and the time for the mice to reach the original platform position (namely, incubation period) and the number of times they crossed the platform were recorded.

[2] = system: Alzheimer's disease mouse models; assay: Alzheimer's disease mouse model (Aβ1-42 into hippocampus), new/old object recognition experiment; assay type: in vivo, ICR mice; conditions: telaprevir 40 mg/kg intramuscular daily for 17 days; ##P<0.01 vs vehicle group, FIG. 7
Method: as §1, §2, §3
According to the requirements of the new/old object recognition experiment, the experiment included three stages: an adaptation period, a training period, and a testing period. […] One of the two objects was replaced with another object with a different shape and color (denoted as C), and the time for the experimental mice to probe the two different objects within 10 minutes was recorded. […]

CCC[C@H](NC(=O)[C@@H]1[C@H]2CCC[C@H]2CN1C(=O)[C@@H](NC(=O)[C@@H](NC(=O)c1cnccn1)C1CCCCC1)C(C)(C)C)C(=O)C(=O)NC1CC1 [telaprevir]
cell viability (MTS) of NMDA treated SH-SY5Y cells (SH-SY5Y nerve cells): significantly inhibit a decrease | time to find the original platform position (incubation period), Morris water maze ([1]; FIG. 6A): significant decrease | number of times they crossed the platform, Morris water maze ([1]; FIG. 6B): significant increase | cognitive index, new/old object recognition [2]: significantly increased

From patent publication US20240335439A1, “USE OF AND METHOD FOR TELAPREVIR IN PREPARATION OF DRUG FOR TREATING AN ISCHEMIA/REPERFUSION INJURY AND CYTOPROTECTIVE DRUG” (THE THIRD XIANGYA HOSPITAL OF CENTRAL SOUTH UNIVERSITY, priority 2021, published 2024)
